The nature of this assay: DPPH free-radical scavenging assay. The format is biochemical. To be noted: 300 μM DPPH in methanol, room temperature, 30 min, read at 517 nm, mean of 3 observations; for IC50: read-out: IC50 (μM), concentration of sample required to scavenge 50% DPPH free radicals. How it is done:
DPPH Radical Scavenging Assay. The DPPH free radical scavenging assay is based on the abilities of compounds to quench stable DPPH free radicals (Lee, S. K.; Mbwambo, Z. H.; Chung, H. S.; Luyengi, L.; Gamez, E. J. C.; Mehta, R. G.; Kinghorn, A. D.; Pezzuto, J. M. Comb. Chem. High Throughput Screen. 1998, 1, 35-46). Reaction mixtures (200 μL) were prepared by combining multiple concentrations of test sample in methanol (10 μL) with DPPH (Aldrich, Milwaukee, Wis.) in methanol (190 μL). The final DPPH concentration was 300 μM. The reaction mixtures were incubated in 96-well microtiter plates at room temperature for 30 min. After the reaction, reduction of the radical was then measured at 517 nm. Percent inhibition by sample treatment was determined by comparison with controls containing no test samples. IC50 values denote the concentration of sample, required to scavenge 50% DPPH free radicals (Ibid.).

Consider `O=C1O[C@H]([C@@H](O)CO)C(O)=C1O` [Ascorbic acid], for which the “IC50 (μg/mL), concentration of sample required to scavenge 50% DPPH free radicals” value (from here on “IC50 … to scavenge 50% DPPH free radicals”) came out at 11.8 µg/mL and the IC50 worked out at 66.8 µM.

Turning to `CC(C)c1cc2c(c(O)c1O)[C@@]1(C(=O)O)CCCC(C)(C)[C@@H]1CC2` [Compound 1, carnosic acid], the “IC50 … to scavenge 50% DPPH free radicals” value worked out at 18.7 µg/mL and the IC50 was determined as 53.3 µM.

With `COc1c(C(C)C)cc2c(c1O)C1(CO)CCCC(C)(C)C1CC2` (centres unmarked) [Compound 4, 11,20-dihydroxy-12-methoxy-abiet-8,11,13-triene], the “IC50 … to scavenge 50% DPPH free radicals” value is 27.7 µg/mL and the IC50 was 83.4 µM.

For the molecule `CC(C)c1cc2c(c(O)c1O)[C@@]13CCCC(C)(C)[C@@H]1C[C@@H]2OC3=O` [Compound 5, 11,12-dihydroxy-7-10-(epoxymethano)-abiet-8,11,13-triene-20-one], the “IC50 … to scavenge 50% DPPH free radicals” value stood at 37.9 µg/mL and the IC50 was determined as 114 µM.

With `CC1(C)CCCC23C(=O)OC(CC12)c1cc(C(CO)CO)c(O)c(O)c13` (centres unmarked) [Compound 6, 11,12,16,17-tetrahydroxy-7-10-(epoxymethano)-abiet-8,11,13-triene-20-one], the “IC50 … to scavenge 50% DPPH free radicals” value is 23.9 µg/mL and the IC50 is 66 µM.

On to `CCCOC(=O)c1cc(O)c(O)c(O)c1` [Propyl gallate], for which the “IC50 … to scavenge 50% DPPH free radicals” value was found to be 9.8 µg/mL and the IC50 is 46.1 µM.

On to `Oc1cccc(O)c1O` [Pyrogallol], for which the “IC50 … to scavenge 50% DPPH free radicals” value was 4.8 µg/mL and the IC50 is 37.8 µM.

Source of the values: patent US20040014808A1, “Novel derivatives of carnosic acid” (priority 2002, published 2004).
